Data on nine molecules can be found in patent publication US20050159425A1, “Methods of therapy” (priority 2002, published 2005).

For one data set, the system named is PDE. The conditions noted are these: cited from earlier work.
The test system of a further data set is type IV PDE. The conditions noted are these: cited from earlier work; for IC50: type IV PDE selective inhibitor.
Data set [1] relates to IL-10 release from U937 cells. Description: IL-10 release from U937 cells (ELISA). It is filed as cell-based, human. The protocol: U 937 cells were grown in RPMI (PAA Laboratories) medium with 10% fetal calf serum added (PAA Laboratories). 2×10^6 cells per flask were treated with prostaglandin E2 at 10^−6 Molar or with Rolipram (4×10^−6) for 24 hours. Medium was removed at 20 hours and analysed by ELISA. A capture antibody (Pharmingen) was coated onto 96 well plates and culture medium was added each well. A standard curve was created with recombinant IL-10 protein. After incubation and washing, a biotin labelled monoclonal antibody (Pharmingen) was added and following incubation and washing, peroxidase labelled streptavidin was added. After washing a tetramethyl benzidine substrate was added and colour developed in proportion to IL-10 in the original sample/standard. Colour was read using a plate photometer (Labsystems, Multiskan). Mean concentrations (N=3) in controls with no lipopolysaccharide (LPS) were […] and in the presence of LPS (100 nM) they were 43.9 […].
The effect of PGE1, PGE2, 19 hydroxy PGE1 and 19 hydroxy PGE2 on the stimulation of IL-10 in the presence and absence of rolipram was investigated as described above in Example 2. IL-10 levels were measured using an ELISA assay (R&D Ltd, Oxford). Measurement was performed according to the manufacturer's instructions.
A general note: In an ELISA, binding on a coated surface is turned into a signal by an enzyme label.

For data set [2], the system named is phosphodiesterase IV b mRNA. Description: phosphodiesterase IV-b mRNA in U937 cells (Taqman). It is filed as cell-based, human. The conditions noted are these: four hours of incubation; for PDE activity (phosphodiesterase IV b mRNA) after application: PGE 1×10^−6, 19-hydroxy PGE2 5×10^−6, without rolipram. As for the experimental part:
Template was amplified in a Taqman 7700 machine for 40 cycles using FAM/TAMRA dyes on the probe. The Applied Biosystems kit was used to amplify and detect ribosomal (18S)RNA (using VIC/TAMRA dyes) as an internal control in the same reaction tube. After 40 cycles the Ct (related to cycle number at which signal appears) for the FAM and the 18S (VIC) were recorded and […] relative quantitation was achieved using the formula 2^−ΔΔCt where Δ refers to the difference between the FAM and VIC signal related to an standard comparator included in each run.
The mRNA for phosphodiesterase IV-b was measured as described in Example 2 above. mRNA was extracted after four hours of incubation. The concentration of the PGE was 1×10^−6 and that of the 19-hydroxy PGE2 was 5×10^−6. The following primers and Taqman probe were used for quantitation of PDE IV b mRNA.
A general note: Quantitative PCR measures a nucleic acid by following its amplification.

The conditions of data set [3]: in vivo; cited from earlier work.
The test system of data set [4] is monocyte/macrophages stimulated with lipopolysaccharide (LPS). The conditions noted are these: cited from earlier work.

Consider `Cn1c(=O)c2c(ncn2C)n(C)c1=O` [caffeine], for which, in the data set with PDE (compared with theophylline, IBMX and pentoxifylline), the “activity as non-specific PDE inhibitor” value is given as “not as active as the others”.

One may read the IC50 as the point on the concentration scale where inhibition reaches its midpoint. Regarding `CC(C)Cn1c(=O)n(C)c(=O)c2[nH]cnc21` [IBMX, 3-isobutyl-1-methylxanthine], in the data set on PDE (non-specific PDE inhibitor), the 50% inhibitory concentration (IC50) is 2000 to 50000 nM.

With `CCCCOc1cc(CC2CNC(=O)N2)ccc1OC` (stereo not shown) [Ro-20-1724, 4-[3-butoxy-4-methoxybenzyl]-2-imidazolidinone], in the data set with type IV PDE, the IC50 was 2000 nM.

Consider 19-hydroxy PGE2, for which, in data set [1] (compared with PGE), the “concentration necessary to achieve similar effects to PGE” value is “higher concentration”. In addition, the “stimulation of IL-10 in the presence of a PDE inhibitor” value in data set [1] was “increased strikingly”. Moreover, in data set [2], the “PDE activity (phosphodiesterase IV b mRNA) after application” value was “increase”.

Take `Cn1c(=O)c2[nH]cnc2n(C)c1=O` [theophylline]: the “times less effective than rolipram” value with type IV PDE (non-selective inhibitor compared with rolipram) is recorded as 30 times.

Take `CCCCC(C)(O)CC=C[C@H]1[C@H](O)CC(=O)[C@@H]1CCCCCCC(=O)OC` (mixture of isomers) [Cytotec, (±) methyl 11α, 16-dihydroxy-16-methyl-9-oxoprost-13-enoate]: in data set [3], the hypotension entry is given as “does not cause hypotension”.

`CCCCC[C@H](O)/C=C/[C@H]1[C@H](O)CC(=O)[C@@H]1C/C=C\CCCC(=O)O` [PGE2, prostaglandin E2]: the “effect on release of IL-10 in combination with PDE inhibitor rolipram” value in data set [1] (combination with rolipram) was “synergistic”. For the same molecule, the “stimulation of IL-10 in the presence of a PDE inhibitor” value in data set [1] was “increased strikingly”. Moreover, the “PDE activity (phosphodiesterase IV b mRNA) after application” value in data set [2] is “increase”. Further, the “PDE message levels with a type IV selective PDE inhibitor” value in data set [2] (with type IV selective PDE inhibitor (rolipram)) is on record as “increases PDE message levels even further”.

Take `COc1ccc(C2CNC(=O)C2)cc1OC1CCCC1` (stereo not shown) [rolipram, 4-[3-cyclopentyloxy-4-methoxyphenyl]-2-pyrrolidinone]: in data set [4], the IL-10 levels entry was “raise” and the cAMP levels result was “raise”. For the same molecule, the half-maximal inhibitory concentration (IC50) in the data set on type IV PDE was 800 nM.

With `COc1ccc(C2CNC(=O)NC2)cc1O[C@H]1C[C@@H]2CC[C@H]1C2` [CP 80 633], the “type IV PDE inhibition” value in the data set on type IV PDE is on record as “potent type IV inhibitors”.
